From US5736568A, “2-(aminoalkoxy) phenylalkylamines with antiinflammatory activity” (Knoll Aktiengesellschaft, priority 1994, dated 1998)

Assays:
[1] = test system: arachidonic acid release from zymosan stimulated macrophages; experiment: Test A: Inhibition of Arachidonic Acid Release from Zymosan Stimulated Macrophages; type: cell-based, mice (female MF1); conditions: Mus musculus, Macrophage; peritoneal macrophages labelled with [3H]-arachidonic acid, zymosan stimulus, 5 h; tested at 100, 50, 20, 10, 5 and 1 μM
Procedure: Test A was carried out in the following way:
Inhibition of Arachidonic Acid Release from Zymosan Stimulated Macrophages
Female MF1 mice (weighing 20 to 25 g) were killed using a rising concentration of CO2. The mice were laid on their backs and the abdomens wiped with 70% alcohol. The skin was pulled back, exposing the peritoneal wall. Medium A (5 ml) (see below) was injected into the peritoneal cavity of each mouse followed by approximately 1 ml of air using a 20 ml syringe and a 21 G×40 mm needle in order to form a suspension of macrophage cells. The medium and cells were then removed using a 19 G×40 mm needle. The resulting suspension was returned to a sterile beaker kept on ice. The extracts from all the mice were pooled and this pooled cell suspension was counted using a Coulter counter and adjusted to a final cell count of 1-1.3×10^6 cells/ml prior to labelling with [^3 H]-arachidonic acid. Typically five mice provided sufficient cells for each multiwell plate.
Sufficient [^3 H]-arachidonic acid in ethanol to give a final concentration of 1.6 μCi/ml (equivalent to 40 μCi/plate) was blown to dryness under nitrogen. The arachidonic acid was then resuspended in 1 or 2 ml of the cell suspension which was then mixed with the remainder of the cell suspension in a centrifuge bottle.
The following day, non-adherent cells were removed by washing 3 times with sterile phosphate buffered saline (PBS). The adherent peritoneal macrophages were then cultured for a further 24 hours in the presence or absence of drugs, in medium B (see below) at 37° in a 5% CO2 atmosphere in order to measure the effects of drugs on the spontaneous release of arachidonic acid in the absence of stimulus. After this incubation, supernatants were removed to give medium 1 and stored in sealed multi-well plates at 4° C. prior to scintillation counting. […] The supernatants were replaced by fresh medium C containing fresh drug and a stimulus. Three drugs were tested at six concentrations (100, 50, 20, 10, 5 and 1 μM) in replicates of four on each plate. The other wells contained controls consisting of a positive control (e.g. dexamethasone), medium (B) only and medium C only.
Incubation was then continued for a further 5 hours, whereupon the supernatants were collected to give medium 2 and the adherent cells washed with PBS. The cells were then lysed with 100 μl of 0.1% TRITON® X100 in a 0.1% solution of bovine serum albumin in 0.9% saline and mechanically disrupted to give cell lysates. These supernatants (medium 2) and cell lysates (Cells) were also stored in sealed multi-well plates at 4° C. prior to scintillation counting. 200 μl aliquots of media, or 100 μl aliquots of cells were counted using 2 ml of OPTIPHASE "HIGH SAFE" (Trademark of LKB) as scintillant.
The percentage of arachidonic acid released was calculated using the mean values for each group of 4 wells in the following equation. [formula]
The percentage inhibition of arachidonic acid release caused by a drug may then be calculated using the following equation. [formula]
Medium A (for peritoneal lavage)
This mixture was transferred to sterile flask and made up to 400 ml with sterile water.
Medium B (for cell culture)
This mixture was transferred to a sterile beaker and made up to 650 ml with sterile water.
Medium C=medium B+stimulant (zymosan)
The zymosan stimulant was prepared as follows:--zymosan (200 mg) (supplied by Sigma) was added to PBS (20 ml). The mixture was boiled for 30 minutes and the volume restored to 20 ml with water. The zymosan was harvested by centrifugation at 500×g for 5 minutes, washed twice by resuspension in PBS (10 ml) and centrifugation. After the final separation, the zymosan was resuspended in 20 ml PBS and stored as 1 ml aliquots at -20° C.

[2] = test system: carrageenan-induced paw oedema; experiment: Test B: Carrageenan-induced rat paw oedema test; type: in vivo; conditions: inhibition of paw oedema, 100 mg/kg oral, 3 h after carrageenan
Procedure: Test B was carried out in the following way:
Carrageenan-induced rat paw oedema test
Female rats, weight range 125-150 g were fasted overnight. One of the hind legs of each animal was marked with a line at the connection between the cuboid/navicular and calcaneus/talus bones. Groups of six rats were orally dosed at 10 ml/kg, in random order, with a given dose of the test compound given as a solution or suspension in 10% (w/v) aqueous acacia solution.
One hour after dosing, 0.1 ml of 1% (w/v) sterile carrageenan λ in normal saline was injected deeply into the plantar surface of the marked hind foot of each rat. The volume of the foot (up to the marked line) was measured immediately after injection using duplicate water displacement readings. Three hours after injection the foot volume was measured again and the percentage increase in foot volume relative to the initial reading was calculated.
The increase in foot volume (i.e. the degree of oedema) in drug treated animals when compared with that in the drug untreated control gave the degree of inhibition of paw oedema by the drug.
Compounds were considered to be active in this test if they produced a statistically significant (typically 20% or greater) inhibition of paw oedema in at least two out of three tests after oral dosing at 100 mg/kg. Statistical significance was assessed using the Student's t test for single dose studies and Dunnett's test for multiple dose studies. More advantageous compounds were active in both Tests A and B,

[3] = test system: carrageenan-induced pleurisy; experiment: Test C: Carrageenan-induced pleurisy in rats; type: in vivo, rat; conditions: 24 h and 48 h, leukocytes harvested at 72 h; for activity in Test C at 30 mg/kg: 30 mg/kg p.o. at challenge; for activity in Test C at 10 mg/kg or less: 10 mg/kg or less p.o. at challenge
Procedure: The most advantageous compounds of formula I were active in Test A and also in the following test. Carrageenan-induced pleurisy in rats was carried out as described by Ackerman et al. J. Pharmacol. Exp. Therap. 1980, 215, 588-595. Migrating leukocytes were harvested by lavage of the thoracic cavity 72 h after injection of 0.3 ml 1% λ-carrageenan in sterile isotonic saline. Test compounds were administered p.o. at the time of challenge and 24 h and 48 h thereafter.

IC50 [1]	Structure (SMILES)	inhibition at 100 mg/kg [2]	activity in Test C at 30 mg/kg [3]	activity in Test C at 10 mg/kg or less [3]
10 µM	CN(CCOc1ccc(Cl)cc1CN1CCCCC1)Cc1ccccc1 [Example 11, N-Benzyl-2-[4-chloro-2-(piperidinomethyl)phenoxy]-N-methylethylamine]	47%	active	
13 µM	CN(C)Cc1ccccc1OCCN(C)Cc1ccc(Cl)cc1 [Example 17, 2-{2-[N-(4-Chlorobenzyl)-N-methylamino]ethoxy}-N,N-dimethylbenzylamine]	36%		active
36 µM	CN(C)Cc1ccccc1OCCN(C)Cc1ccccc1 [Example 20, 2-[2-(N-Benzyl-N-methylamino)ethoxy]-N,N-dimethylbenzylamine]	64%	active	
22 µM	CN(C)Cc1cc(Cl)ccc1OCCN(C)Cc1ccccc1 [Example 21, 2-[2-(N-Benzyl-N-methylamino)ethoxy]-5-chloro-N,N-dimethylbenzylamine]	31%		active
14 µM	CN(C)CCOc1ccc(Cl)cc1CN(C)C [Example 22, 5-Chloro-2-(2-dimethylaminoethoxy)-N,N-dimethylbenzylamine]	26%	active	

Structure (SMILES)	IC50 [1]	inhibition at 100 mg/kg [2]	activity in Test C at 30 mg/kg [3]	activity in Test C at 10 mg/kg or less [3]
CN(C)Cc1cc(Cl)ccc1OCCCN(C)Cc1ccccc1 [Example 12, 2-[3-(N-Benzyl-N-methylamino)propoxy]-5-chloro-N,N-dimethylbenzylamine]	8 µM	68%	active	
CN(C)Cc1c(OCCN(C)Cc2ccccc2)ccc(Cl)c1Cl [Example 13, 2-[2-(N-Benzyl-N-methylamino)ethoxy]-5,6-dichloro-N,N-dimethylbenzylamine]	8 µM	70%	active	
